What was measured:
Assay type in all cases: in vivo
[1] = tested on: adult mosquitoes Anopheles funestus strain FUMOZ-R; test: Anopheles funestus test (ANPHFU surface treatment & contact assay); settings: surface concentration 20 mg/m^2, exposure 30 minutes, 24 hours after contact, read-out: efficacy (mortality)
Description: Anopheles funestus Test (ANPHFU Surface Treatment & Contact Assay)
Solvent: Aceton+2000 ppm rapeseed oil methyl ester (RME)
In order to produce a sufficient, active ingredient containing solution it is necessary to solve the test compound in the solvent-mix (acetone at 2 mg/ml/RME 2000 ppm). This solution is pipetted onto a glazed tile and after evaporation of the acetone, adult mosquitoes of the species Anopheles funestus strain FUMOZ-R (Hunt et al., Med. Vet. Entomol. 2005 September; 19(3): 271-275) are placed onto the dried surface. The exposure time is 30 minutes.
Mortality in percent (%) is determined 24 hours after contact of the insects to the treated surface. 100% mortality means that all tested insects are dead, whereas 0% means that no insect died.

[2] = tested on: green peach aphid (Myzus persicae); test: Myzus persicae spray test; settings: foliar, 120 h, after 5 days, Chinese cabbage leaf disks; for mortality at 500 g/ha: application rate 500 g/ha; for mortality at 100 g/ha: application rate 100 g/ha, read-out: activity (mortality)
Outline: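 Percent kill was recorded 5 days after spraying. Test solutions, prepared with solvent and diluted in 1000 ppm emulsifier water, were applied to Brassica pekinensis leaf disks carrying mixed-instar green peach aphids.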

[3] = tested on: green peach aphid (Myzus persicae); test: Myzus persicae oral test; settings: 120 h, read-out: activity (mortality)
Outline: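 Five-day oral feeding assay measuring percent mortality of a mixed aphid population that draws compound-containing sugared IPL41 medium through sealing parafilm; the test preparation derives from 1 part compound per 100 parts acetone, diluted with water.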

[4] = tested on: adult flies Musca domestica strain WHO-N; test: Musca domestica test (MUSCDO surface treatment & contact assay); settings: surface concentration 20 mg/m^2, exposure 30 minutes, 24 hours after contact, read-out: efficacy (mortality)
Outline: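 Compound dissolved at 2 mg/ml in acetone with 2000 ppm RME, applied to glazed tile and dried; adult flies exposed on the surface for 30 min. Percent mortality scored 24 h after contact.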

[5] = tested on: larvae of the southern green stink bug (Nezara viridula); test: Nezara viridula spray test; settings: 96 h, application rate 500 g/ha, after 4 days, barley plants, read-out: activity (mortality)
Outline: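 Barley plants sprayed with the active compound in emulsifier-containing water, then infested with stink bug larvae. Mortality scored in % after 4 days, with 100% meaning all insects killed.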

[6] = tested on: larvae of the banded cucumber beetle (Diabrotica balteata); test: Diabrotica balteata spray test; settings: 168 h, after 7 days, wheat seeds, read-out: activity (efficacy: seedlings grown); for pest or weed control at 32 µg/disc, 100 g/ha: application rate 100 g/ha (=32 μg/well); for pest or weed control at 160 µg/disc, 500 g/ha: application rate 500 g/ha (=160 μg/well)
Outline: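 Efficacy (%) read 7 days after infesting treated seedlings with 10-20 banded cucumber beetle larvae, 100% meaning growth as in uninfected untreated control and 0% no growth. Test solutions in water containing 1000 ppm emulsifier were sprayed onto wheat seeds germinated for 1 day on agar.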

[7] = tested on: adult engorged female ticks (Rhipicephalus microplus); test: Rhipicephalus (Boophilus) microplus injection test; settings: 168 h, application rate 4 μg/tick, egg deposition after 7 days, read-out: activity (efficacy: infertile eggs)
Outline: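 Abdominal injection, 1 μL compound/DMSO, n=5 engorged adult females; climate-chamber incubation. Readout d7: fertile egg laying; doubtful eggs held to hatch (~42 d). % efficacy = infertile eggs (100% all infertile).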

[8] = tested on: fall armyworm larvae (Spodoptera frugiperda); test: Spodoptera frugiperda spray test; settings: 168 h, application rate 100 g/ha, after 7 days, maize leaf sections
Outline: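 Seven-day percent mortality of larvae feeding on Zea mays leaf sections sprayed with test compound. Dilutions were made in water holding 1000 ppm emulsifier.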

[9] = tested on: adult unfed cat fleas (Ctenocephalides felis); test: Ctenocephalides felis oral test; settings: 48 h, read-out: activity (mortality)
Outline: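 About 20 adult unfed cat fleas fed through parafilm on citrated cattle blood containing compound (from a DMSO concentrate). Blood held at 37° C, fleas at room temperature. Mortality in % scored after 2 days.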

[10] = tested on: adult mosquitoes Aedes aegypti strain MONHEIM; test: Aedes aegypti test (AEDSAE surface treatment & contact assay); settings: 24 hours after contact, read-out: efficacy (mortality); for mortality at 20 mg/m2: surface concentration 20 mg/m^2, exposure 30 minutes
Outline: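 Compound in acetone (2 mg/ml) with 2000 ppm RME dried onto glazed tile; adults exposed to the treated surface for 30 min. Percent mortality scored 24 h after contact.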

[11] = tested on: adult cat fleas (Ctenocephalides felis); test: Ctenocephalides felis in-vitro contact test, adult cat flea; settings: application rate 5 μg/cm^2 (=500 g/ha), after 48 hours, read-out: activity (efficacy: fleas dead or moribund)
Outline: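 After 48 h of room-temperature exposure in tubes whose walls carried dried compound residue (5 μg/cm^2, from 900 ppm acetone solution), adult cat fleas (5-10 per tube) were heat-challenged at 45-50° C up to 5 min. Fleas unable to climb away were counted dead or moribund, expressed as % efficacy.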

[12] = tested on: brown planthopper (Nilaparvata lugens); test: Nilaparvata lugens spray test; settings: 96 h, application rate 500 g/ha, after 4 days, rice plants
Description: Nilaparvata lugens—Spray Test
To produce a suitable preparation of active compound, 1 part by weight of active compound is mixed with the stated amount of solvents and is diluted with water, containing an emulsifier concentration of 1000 ppm, to the desired concentration. Further test concentrations are prepared by dilution with emulsifier containing water.
Rice plants (Oryza sativa) are sprayed with a preparation of the active ingredient of the desired concentration and the plants are infested with the brown planthopper (Nilaparvata lugens).
After 4 days mortality in % is determined. 100% means all planthoppers have been killed and 0% means none of the planthoppers have been killed.

[13] = tested on: cattle ticks (Rhipicephalus microplus) strain Parkhurst, SP-resistant; test: Rhipicephalus (Boophilus) microplus dip test; settings: 168 h, application rate 100 ppm, egg deposition after 7 days, read-out: activity (efficacy: infertile eggs)
Description: Rhipicephalus (Boophilus) microplus—Dip Test
Test animal: cattle ticks (Rhipicephalus microplus) strain Parkhurst, SP-resistant
Solvent: dimethyl sulfoxide
To produce a suitable preparation of active compound, 10 mg of active compound are dissolved in 0.5 mL solvent, and the concentrate is diluted with water to the desired concentration.
This compound solution is pipetted into tubes. 8-10 engorged, adult, female cattle ticks (Rhipicephalus microplus) are placed in perforated tubes. These tubes are immersed in the aqueous compound solution until the ticks are completely moistened. After the liquid has drained off, the ticks are transferred to a filter paper in a plastic tray and stored in a climate chamber.
After 7 days egg deposition of fertile eggs is monitored. Eggs where fertility is not visible are stored in a climate chamber till hatching after about 42 days. An efficacy of 100% means all eggs are infertile; 0% means all eggs are fertile.

[14] = tested on: Rhipicephalus (Boophilus) microplus larvae (strain Parkhurst, resistant against synthetic pyrethroids); test: Rhipicephalus (Boophilus) microplus in-vitro contact test, larval cattle tick; settings: after 48 hours, read-out: activity (efficacy: larvae dead or moribund); for pest or weed control at 1 µg/cm2, 100 g/ha: application rate 1 μg/cm^2 (=100 g/ha); for pest or weed control at 5 µg/cm2, 500 g/ha: application rate 5 μg/cm^2 (=500 g/ha)
Outline: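 Pyrethroid-resistant Parkhurst larvae, 20–50 per tube, were kept 48 h at 27 °C and 85% relative humidity in glass tubes whose inner walls carried a dried acetone film of compound (900 ppm giving 5 μg/cm^2). Dead or moribund larvae, judged by loss of negative geotactic behavior, set percent efficacy.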

[15] = tested on: southern root-knot nematode (Meloidogyne incognita); test: Meloidogyne incognita test; settings: application rate 20 ppm; after 14 days
Description: Meloidogyne incognita—Test
Solvent: 125.0 parts by weight of acetone
To produce a suitable preparation of active compound, 1 part by weight of active compound is mixed with the stated amount of solvent, and the concentrate is diluted with water to the desired concentration.
Vessels are filled with sand, a solution of the active ingredient, a suspension containing eggs and larvae of the southern root-knot nematode (Meloidogyne incognita) and salad seeds. The salad seeds germinate and the seedlings grow. Galls develop in the roots.
After 14 days the nematicidal activity is determined based on the percentage of gall formation. 100% means no galls were found and 0% means the number of galls found on the roots of the treated plants was equal to that in untreated control plants.

[16] = tested on: adult brown dog ticks (Rhipicephalus sanguineus); test: Rhipicephalus sanguineus in-vitro contact test, adult brown dog ticks; settings: application rate 5 μg/cm^2 (=500 g/ha), after 48 hours, read-out: activity (efficacy: ticks dead or moribund)
Outline: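 Contact exposure: dried compound film inside glass tubes, dose 5 μg/cm^2 at 900 ppm, 5-10 adults per tube at room temperature. Scored at 48 h via a heat-escape test on a 45-50° C plate for up to 5 min.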

Structure (SMILES) | mortality at 4 ppm [3] [%] | mortality at 20 mg/m2 [4] [%] | mortality at 500 g/ha [5] [%] | pest or weed control at 32 µg/disc, 100 g/ha [6] [%] | pest or weed control at 0.004 mg [7] [%] | mortality at 100 g/ha [8] [%] | mortality at 100 ppm [9] [%] | mortality at 20 mg/m2 [10] [%] | mortality at 100 g/ha [2] [%] | pest or weed control at 5 µg/cm2 [11] [%] | pest or weed control at 100 ppm [13] [%] | pest or weed control at 1 µg/cm2, 100 g/ha [14] [%] | pest or weed control at 5 µg/cm2, 500 g/ha [14] [%] | activity (nematicidal activity based on gall formation) [15] [%] | pest or weed control at 5 µg/cm2, 500 g/ha [16] [%] | further results
CC(NC(=O)c1cc(C(F)(F)F)cc(C(F)(F)F)c1)c1nc(C(F)F)nn1-c1ccc(C(=O)N2CCOCC2)cn1 (racemic) [Example I-83, N-[1-[5-(Difluoromethyl)-2-[5-(morpholine-4-carbonyl)-2-pyridyl]-1,2,4-triazol-3-yl]ethyl]-3,5-bis(trifluoromethyl)benzamide] | 100 | 80 to 100 | 100 | 100 | 100 | 100 | 100 |  |  |  |  |  |  |  |  | mortality at 20 mg/m2 [1]: 80 to 100%; mortality at 500 g/ha [2]: 90%; mortality at 20 ppm [3]: 100%; pest or weed control at 160 µg/disc, 500 g/ha [6]: 100%
C[C@H](NC(=O)c1cc(Cl)cc(C(F)(F)F)c1)c1ncnn1-c1ccc(C(=O)N2CCOCC2)cn1 [Example I-1] | 100 |  | 100 |  | 100 | 100 | 100 | 80 to 100 | 100 | 100 | 80 |  |  |  |  | mortality at 4 mg/m2 ([10]; surface concentration 4 mg/m^2, exposure 30 minutes): 80 to 100%; mortality at 500 g/ha [2]: 100%; mortality at 500 g/ha [12]: 100%; pest or weed control at 160 µg/disc, 500 g/ha [6]: 100%
C[C@H](NC(=O)c1cc(C(F)(F)F)cc(C(F)(F)F)c1)c1ncnn1-c1ccc(C(=O)N2CCC(O)C2)cn1 (stereo partly drawn) [Example I-13] | 100 |  |  |  | 100 |  | 100 |  | 100 |  | 80 | 100 | 100 |  |  | 
Cc1nc([C@H](C)NC(=O)c2cc(Cl)cc(C(F)(F)F)c2)n(-c2cc(C(=O)N3CCC3)ccn2)n1 [Example I-28] |  |  |  |  | 80 |  | 100 |  |  |  |  | 90 | 90 | 90 |  | 
COC1CCN(C(=O)c2ccc(-n3ncnc3[C@H](C)NC(=O)c3cc(Cl)cc(C(F)(F)F)c3)nc2)CC1 [Example I-30] | 100 |  |  |  | 100 |  |  |  | 90 | 80 |  | 100 | 100 | 90 |  | 
Cc1nc([C@H](C)NC(=O)c2cc(C(F)(F)F)cc(C(F)(F)F)c2)n(-c2ccc(C(=O)N3C[C@@H](C)O[C@H](C)C3)cn2)n1 [Example I-47] | 100 |  |  |  | 100 | 100 | 90 |  | 100 | 100 | 100 | 100 | 100 |  | 100 | 
C[C@H](NC(=O)c1cc(C(F)(F)F)cc(C(F)(F)F)c1)c1ncnn1-c1ccc(C(=O)N2CCN(C)C(=O)C2)cn1 [Example I-79] | 100 | 80 to 100 | 100 |  |  | 100 |  | 80 to 100 |  |  |  |  |  |  |  | mortality at 20 mg/m2 [1]: 80 to 100%; mortality at 500 g/ha [12]: 100%
C[C@H](NC(=O)c1cc(C(F)(F)F)cc(C(F)(F)F)c1)c1nc(C2CC2)nn1-c1ccc(C(=O)N2CCOCC2)cn1 [Example I-88] |  | 80 to 100 | 100 | 100 |  | 100 |  | 80 to 100 | 90 | 100 |  | 100 | 100 | 100 | 100 | 
Cc1nc([C@H](C)NC(=O)c2cc(C(F)(F)F)cc(C(F)(F)F)c2)n(-c2ncc(C(=O)N3C[C@@H](C)O[C@@H](C)C3)s2)n1 [Example I-107] | 100 | 80 to 100 |  | 100 | 100 | 100 | 100 |  |  |  | 100 | 100 | 100 |  | 100 | 

Source: US20230058623A1, “NOVEL HETEROARYL-TRIAZOLE COMPOUNDS AS PESTICIDES” (Bayer Aktiengesellschaft, priority 2019, published 2023)
